Here are results for eight compounds from ChEMBL document CHEMBL1287764, “3-O-phosphate ester conjugates of 17-β-O-{1-[2-carboxy-(2-hydroxy-4-methoxy-3-carboxamido)anilido]ethyl}1,3,5(10)-estratriene as novel bone-targeting agents” (Bioorg Med Chem Lett, 2010).

In this experiment the test system is Hydroxyapatite. Description: Binding affinity to hydroxyapatite at 10 nM by UV-spectroscopy relative to tetracycline.

On to `CCCCC(CC)COP(=O)(OCC(CC)CCCC)Oc1ccc2c(c1)CC[C@@H]1[C@@H]2CC[C@]2(C)[C@@H](OCCC(=O)Nc3ccc(OC)c(C(N)=O)c3O)CC[C@@H]12` (stereo partly drawn), for which the RBA was 180%.
Then `COc1ccc(NC(=O)CCO[C@H]2CC[C@H]3[C@@H]4CCc5cc(OP(=O)(OCC(C)C)OCC(C)C)ccc5[C@H]4CC[C@]23C)c(O)c1C(N)=O`, with 180%.
Then `CN(C)[C@@H]1C(O)=C(C(N)=O)C(=O)[C@@]2(O)C(O)=C3C(=O)c4c(O)cccc4[C@@](C)(O)[C@H]3C[C@@H]12`, with 100%; and `CCCCOP(=O)(OCCCC)Oc1ccc2c(c1)CC[C@@H]1[C@@H]2CC[C@]2(C)[C@@H](OCCC(=O)Nc3ccc(OC)c(C(N)=O)c3O)CC[C@@H]12`, with 100%.
Then `COc1ccc(NC(=O)CCO[C@H]2CC[C@H]3[C@@H]4CCc5cc(OP(=O)(OCc6ccccc6)OCc6ccccc6)ccc5[C@H]4CC[C@]23C)c(O)c1C(N)=O`, with 190%; and `CCCCCCCCCCCCOP(=O)(OCCCCCCCCCCCC)Oc1ccc2c(c1)CC[C@@H]1[C@@H]2CC[C@]2(C)[C@@H](OCCC(=O)Nc3ccc(OC)c(C(N)=O)c3O)CC[C@@H]12`, with 160%; and `COc1ccc(NC(=O)CCO[C@H]2CC[C@H]3[C@@H]4CCc5cc(OP(=O)(OC(C)C)OC(C)C)ccc5[C@H]4CC[C@]23C)c(O)c1C(N)=O`, with 200%.
In turn, `C[C@]12CC[C@@H]3c4ccc(O)cc4CC[C@H]3[C@@H]1CC[C@@H]2O` displayed an RBA of 0%.
